Data on seven compounds can be found in patent US11090319B2, “Therapeutic uses of pharmaceutical compositions comprising cyclic boronic acid ester derivatives” (Melinta Subsidiary Corp., priority 2010, dated 2021).

Where two headings read alike, the source gives them in different places. Where only a bound is given, the exact number is not on record here.

Assay [1] concerns ECL1004 Enterobacter cloacae NMC-A. In words: Checkerboard assay, biapenem potentiation. Conditions: Biapenem MIC 8-fold; ECL1004 NMC-A class A.
For assay [2], the system named is EC1007 Escherichia coli KPC-3. The experiment in a line: Checkerboard assay, biapenem potentiation. To be noted: Biapenem MIC 8-fold; EC1007 KPC-3 class A.
The test system of assay [3] is SM1000 Serratia marcescens SME-2. In words: Checkerboard assay, biapenem potentiation. Conditions: Biapenem MIC 8-fold; SM1000 SME-2 class A.
For assay [4], the target named is various β-lactamases (bacterial lysates) (Escherichia coli, UniProt A0A5R8T042). The experiment in a line: biochemical. Conditions: read-out: AZT IC50 KP1009 CTX-M-15. The format is biochemical.
The target in assay [5] is various β-lactamases (bacterial lysates) (Escherichia coli, UniProt A0A649V088). The experiment in a line: biochemical. The format is biochemical. Conditions: read-out: AZT IC50 KP1005 CTX-M-14.
In assay [6] the target is various β-lactamases (bacterial lysates) (Klebsiella pneumoniae, UniProt Q9F663). The experiment in a line: biochemical. The format is biochemical.
The target of assay [7] is various β-lactamases (bacterial lysates) (Klebsiella pneumoniae, UniProt Q9F663, H272Y). In words: biochemical. The assay is classed as biochemical.
Assay [8] addresses various β-lactamases (bacterial lysates) (Pseudomonas aeruginosa, UniProt P14489). The experiment in a line: biochemical. The assay is classed as biochemical. Conditions: AZT IC50 KP1007 OXA-10.
The target in assay [9] is various β-lactamases (bacterial lysates) (Salmonella typhimurium, UniProt P0A1V8). In words: biochemical. The format is biochemical. Conditions: AZT IC50 KPX1001 OXA-2.
Assay [10] has as its target various β-lactamases (bacterial lysates) (Escherichia coli, UniProt Q53TY8). The experiment in a line: Inhibition of nitrocefin cleavage by bacterial lysates, Table 11. The format is biochemical. To be noted: lysate EC1010 pAmpC (CMY-6), read-out: NCF IC50 EC1010 pAmpC (CMY-6).
For assay [11], the system named is strains expressing class A ESBLs. The assay is classed as cell-based. As for the experimental part: Selected β-lactamase inhibitors were also tested for their ability to potentiate the monobactam tigemonam.
Another assay has as its target SME-2, lysate of SM1000 (Serratia marcescens, UniProt P52682). In words: Inhibition of biapenem hydrolysis by bacterial lysate. Conditions: read-out: IC50 of inhibition of biapenem hydrolysis; SM1000 SME-2.
Assay [12] concerns the target CTX-M-15, lysate of KP1009 (Escherichia coli, UniProt Q9EXV5). The experiment in a line: Inhibition of ceftazidime hydrolysis by bacterial lysate.
The target of a further assay is GES-1, lysate of pa 1063 (Klebsiella pneumoniae, UniProt Q9KJY7). The assay is described as above.
A further assay has as its target SHV-2, lysate of ec306 (Escherichia coli, UniProt P0A9Z7). Described as above.
The target of another assay is SHV-5, lysate of ec308 (Escherichia coli, UniProt P0AD63, E235K/G234S). Described as above.
The next assay addresses OXA-10, lysate of KP1007 (Pseudomonas aeruginosa, UniProt P14489). The assay is described as above.
The mark [13] stands for this setting: lysate KP1004 KPC-2, aztreonam cleavage, read-out: AZT IC50 KP1004 KPC-2 (converted).
The mark [14] stands for this setting: lysate KP1008 KPC-2, aztreonam cleavage, read-out: AZT IC50 KP1008 KPC-2.

various β-lactamases (bacterial lysates) (Escherichia coli, UniProt A0A5R8T042), sequence (A0A5R8T042 29-291): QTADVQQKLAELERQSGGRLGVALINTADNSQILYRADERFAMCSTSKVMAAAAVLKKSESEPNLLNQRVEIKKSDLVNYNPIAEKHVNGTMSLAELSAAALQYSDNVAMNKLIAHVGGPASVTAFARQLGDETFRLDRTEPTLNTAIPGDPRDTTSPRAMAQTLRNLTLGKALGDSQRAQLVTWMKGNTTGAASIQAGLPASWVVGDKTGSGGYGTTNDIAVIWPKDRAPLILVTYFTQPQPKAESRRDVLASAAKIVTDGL
CTX-M-15, lysate of KP1009, sequence (Q9EXV5 entry or part of it): as the sequence (A0A5R8T042 29-291) above

Consider `O=C(O)CC1CC[C@H](NC(=O)Cc2ccccc2)B(O)O1` (stereo partly drawn) [Compound 2, 2-((3R)-2-hydroxy-3-(2-phenylacetamido)-1,2-oxaborinan-6-yl)acetic acid], for which the MPC8 entry in [1] is given as “Y (MPC8 of 0.16 μg/mL to 1 μg/mL)”; in assay [2], “X (MPC8 of less than 0.16 μg/mL)”; in assay [3] it was “Y (MPC8 of 0.16 μg/mL to 1 μg/mL)”.

`Nc1nc(CC(=O)N[C@H]2CC[C@@H](CC(=O)O)OB2O)cs1` [Compound 39, 2-((3R,6S)-3-(2-(2-aminothiazol-4-yl)acetamido)-2-hydroxy-1,2-oxaborinan-6-yl)acetic acid]: the IC50 in assay [4] is 1600 to 6390 nM; in assay [5], 1600 to 6390 nM; in [6] (setting [13]), under 1600 nM; in assay [6] (setting [14]) it was 1600 to 6390 nM; in assay [7] it was under 1600 nM; in assay [8], over 6390 nM. In addition, the IC50 is 1600 to 6390 nM in assay [9] and over 6390 nM in [10].

Consider `CO/N=C(\C(=O)N[C@H]1CC[C@@H](CC(=O)O)OB1O)c1csc(N)n1` [Compound 40, 2-((3R,6S)-3-((Z)-2-(2-aminothiazol-4-yl)-2-(methoxyimino)acetamido)-2-hydroxy-1,2-oxaborinan-6-yl)acetic acid], for which the 50% inhibitory concentration (IC50) in assay [4] is under 1400 nM; in [5], under 1400 nM; in assay [6] (setting [13]) it was 1400 to 5620 nM; in assay [6] (setting [14]), over 5620 nM; in assay [7] it was 1400 to 5620 nM; in assay [8], 1400 to 5620 nM. Besides, the IC50 in assay [9] is under 1400 nM; in [10], 1400 to 5620 nM.

Consider `NC1(CC(=O)N[C@H]2CC[C@@H](CC(=O)O)OB2O)CCCCC1` [Compound 51, 2-((3R,6S)-3-(2-(1-aminocyclohexyl)acetamido)-2-hydroxy-1,2-oxaborinan-6-yl)acetic acid], for which the IC50 is over 6410 nM in assay [4]; over 6410 nM in assay [5]; under 1600 nM in [6] (setting [13]); under 1600 nM in assay [6] (setting [14]); under 1600 nM in assay [7]; over 6410 nM in assay [8]. Moreover, the half-inhibitory concentration (IC50) in [9] and in assay [10] was 1600 to 6410 nM each time.

Take `O=C(O)C[C@@H]1CC[C@H](NC(=O)Cn2ccnc2-c2ccccc2)B(O)O1` [Compound 54, 2-((3R,6S)-2-hydroxy-3-(2-(2-phenyl-1H-imidazol-1-yl)acetamido)-1,2-oxaborinan-6-yl)acetic acid]: the IC50 in assay [4] was over 5600 nM; in [5] it was under 1400 nM; in [6] (setting [13]), under 1400 nM; in [6] (setting [14]), under 1400 nM; in assay [7] it was under 1400 nM; in assay [8], over 5600 nM. The half-inhibitory concentration (IC50) in assay [9] and in [10] was 1400 to 5600 nM each time.

In the case of `Nc1nc(/C(=N/OCc2cc(=O)c(O)cn2O)C(=O)N[C@H]2CC[C@@H](CC(=O)O)OB2O)cs1` [Compound 62, 2-((3R)-3-((Z)-2-(2-aminothiazol-4-yl)-2-((1,5-dihydroxy-4-oxo-1,4-dihydropyridin-2-yl)methoxyimino)acetamido)-2-hydroxy-1,2-oxaborinan-6-yl)acetic acid], the IC50 in assay [4] was 1040 to 4160 nM; in [5], 1040 to 4160 nM; in assay [6] (setting [13]), 1040 to 4160 nM; in assay [6] (setting [14]), under 1040 nM; in assay [7] it was under 1040 nM; in assay [8] it was over 4160 nM. The IC50 in assay [9] and in assay [10] was over 4160 nM each time.

`C[C@]1(Cn2ccnn2)[C@H](C(=O)O)N2C(=O)C[C@H]2S1(=O)=O` [Tazobactam, reference compound]: the IC50 is 7390 nM in [6] (AZT IC50 KP1008 KPC-2); 2460 nM in assay [6] (lysate KP1004 KPC-2, aztreonam cleavage, numeric values, read-out: AZT IC50 KP1004 KPC-2 (converted)); 2460 nM in assay [7]; 14800 nM in assay [8]; 333 to 3330 nM on SME-2, lysate of SM1000; under 333 nM in assay [12]. In addition, the half-maximal inhibitory concentration (IC50) at GES-1, lysate of pa 1063 is 333 to 3330 nM; at SHV-2, lysate of ec306, 333 to 3330 nM; on SHV-5, lysate of ec308 it was under 333 nM; against OXA-10, lysate of KP1007, 333 to 3330 nM. The “MPC4 CTX-M-14 KP1005” value in assay [11] worked out at 10 µg/mL. In [11], the “MPC4 CTX-M-15 KP1009” value was 10 µg/mL. Also, the “MPC4 SHV-5 ec308” value in [11] stood at 5 µg/mL. In addition, in [11], the “MPC4 SHV-12 KP1010” value was determined as 1.25 µg/mL. For the same compound, the “MPC4 SHV-18 KP1012” value in assay [11] worked out at 1.25 µg/mL. The “MPC4 TEM-10 EC1009” value in assay [11] was determined as 2.5 µg/mL. The “MPC4 TEM-10 ec302” value in assay [11] was 5 µg/mL. Moreover, the “MPC4 TEM-26 ec304” value in assay [11] amounted to 1.25 µg/mL.
